Results from PubChem BioAssay (NCI).
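Values below derive from 48-hour exposures of cells grown in 96-well plates, with endpoints linearly interpolated between the two concentrations bracketing the appropriate inhibition level. TGI: total growth inhibition.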

These molecules were tested on CAKI-1 renal (assay: NCI tumour cell line growth inhibition, 48 h).

Structure (SMILES)	TGI
COc1nc(NC2OC(COC(C)=O)C(OC(C)=O)C(OC(C)=O)C2OC(C)=O)c2c(OC(C)=O)c(C)c(=O)oc2n1 (stereo not drawn)	> 100 µM
CC1(C)OC(=O)C(c2cccs2)C(=O)O1	> 100 µM

The molecules below were run on SK-MEL-28 melanoma (assay: NCI tumour cell line growth inhibition, 48 h).

Structure (SMILES)	TGI
CCCc1nc(N)nc(C(=O)Nc2cccc(C(F)(F)F)c2)c1CC	> 100 µM
O=C1c2ccccc2-c2ccccc2C(=O)C1(Br)Br	20.8 µM
O=C1C(Cl)C(c2cc(Br)cc(Br)c2O)N1n1cnc2ccccc2c1=O (stereo not drawn)	70.5 µM
CC1(C)OC(=O)C(c2cccs2)C(=O)O1	> 100 µM

These molecules were tested on RXF 393 renal (assay: NCI tumour cell line growth inhibition, 48 h).

Structure (SMILES)	TGI
CCCc1nc(N)nc(C(=O)Nc2cccc(C(F)(F)F)c2)c1CC	> 100 µM
O=C1c2ccccc2-c2ccccc2C(=O)C1(Br)Br	10.9 µM
O=C1C(Cl)C(c2cc(Br)cc(Br)c2O)N1n1cnc2ccccc2c1=O (stereo not drawn)	63.7 µM
COc1nc(NC2OC(COC(C)=O)C(OC(C)=O)C(OC(C)=O)C2OC(C)=O)c2c(OC(C)=O)c(C)c(=O)oc2n1 (stereo not drawn)	> 100 µM
CC1(C)OC(=O)C(c2cccs2)C(=O)O1	> 100 µM

What follows are molecules tested on MOLT-4 leukemia (assay: NCI tumour cell line growth inhibition, 48 h).

Structure (SMILES)	TGI
CCCc1nc(N)nc(C(=O)Nc2cccc(C(F)(F)F)c2)c1CC	> 100 µM
O=C1c2ccccc2-c2ccccc2C(=O)C1(Br)Br	7.53 µM
O=C1C(Cl)C(c2cc(Br)cc(Br)c2O)N1n1cnc2ccccc2c1=O (stereo not drawn)	30.1 µM
COc1nc(NC2OC(COC(C)=O)C(OC(C)=O)C(OC(C)=O)C2OC(C)=O)c2c(OC(C)=O)c(C)c(=O)oc2n1 (stereo not drawn)	> 100 µM
CC1(C)OC(=O)C(c2cccs2)C(=O)O1	> 100 µM

What follows are molecules tested on HCC-2998 colon (assay: NCI tumour cell line growth inhibition, 48 h).

Structure (SMILES)	TGI
CCCc1nc(N)nc(C(=O)Nc2cccc(C(F)(F)F)c2)c1CC	> 100 µM
O=C1c2ccccc2-c2ccccc2C(=O)C1(Br)Br	32.2 µM
O=C1C(Cl)C(c2cc(Br)cc(Br)c2O)N1n1cnc2ccccc2c1=O (stereo not drawn)	> 100 µM
COc1nc(NC2OC(COC(C)=O)C(OC(C)=O)C(OC(C)=O)C2OC(C)=O)c2c(OC(C)=O)c(C)c(=O)oc2n1 (stereo not drawn)	> 100 µM
CC1(C)OC(=O)C(c2cccs2)C(=O)O1	> 100 µM

What follows are molecules tested on HOP-62 NSCLC (assay: NCI tumour cell line growth inhibition, 48 h).

Structure (SMILES)	TGI
CCCc1nc(N)nc(C(=O)Nc2cccc(C(F)(F)F)c2)c1CC	> 100 µM
O=C1c2ccccc2-c2ccccc2C(=O)C1(Br)Br	32.2 µM
O=C1C(Cl)C(c2cc(Br)cc(Br)c2O)N1n1cnc2ccccc2c1=O (stereo not drawn)	> 100 µM
COc1nc(NC2OC(COC(C)=O)C(OC(C)=O)C(OC(C)=O)C2OC(C)=O)c2c(OC(C)=O)c(C)c(=O)oc2n1 (stereo not drawn)	> 100 µM
CC1(C)OC(=O)C(c2cccs2)C(=O)O1	> 100 µM

The molecules below were run on DLD-1 colon (assay: NCI tumour cell line growth inhibition, 48 h).

Structure (SMILES)	TGI
CCCc1nc(N)nc(C(=O)Nc2cccc(C(F)(F)F)c2)c1CC	> 100 µM
O=C1c2ccccc2-c2ccccc2C(=O)C1(Br)Br	20.3 µM
O=C1C(Cl)C(c2cc(Br)cc(Br)c2O)N1n1cnc2ccccc2c1=O (stereo not drawn)	> 100 µM
COc1nc(NC2OC(COC(C)=O)C(OC(C)=O)C(OC(C)=O)C2OC(C)=O)c2c(OC(C)=O)c(C)c(=O)oc2n1 (stereo not drawn)	> 100 µM
CC1(C)OC(=O)C(c2cccs2)C(=O)O1	> 100 µM

These molecules were tested on SK-MEL-2 melanoma (assay: NCI tumour cell line growth inhibition, 48 h).

Structure (SMILES)	TGI
CCCc1nc(N)nc(C(=O)Nc2cccc(C(F)(F)F)c2)c1CC	> 100 µM
O=C1c2ccccc2-c2ccccc2C(=O)C1(Br)Br	23.6 µM
O=C1C(Cl)C(c2cc(Br)cc(Br)c2O)N1n1cnc2ccccc2c1=O (stereo not drawn)	46.7 µM
COc1nc(NC2OC(COC(C)=O)C(OC(C)=O)C(OC(C)=O)C2OC(C)=O)c2c(OC(C)=O)c(C)c(=O)oc2n1 (stereo not drawn)	> 100 µM
CC1(C)OC(=O)C(c2cccs2)C(=O)O1	> 100 µM

What follows are molecules tested on SNB-19 CNS (assay: NCI tumour cell line growth inhibition, 48 h).

Structure (SMILES)	TGI
CCCc1nc(N)nc(C(=O)Nc2cccc(C(F)(F)F)c2)c1CC	> 100 µM
O=C1c2ccccc2-c2ccccc2C(=O)C1(Br)Br	31.6 µM
O=C1C(Cl)C(c2cc(Br)cc(Br)c2O)N1n1cnc2ccccc2c1=O (stereo not drawn)	89.3 µM
COc1nc(NC2OC(COC(C)=O)C(OC(C)=O)C(OC(C)=O)C2OC(C)=O)c2c(OC(C)=O)c(C)c(=O)oc2n1 (stereo not drawn)	> 100 µM
CC1(C)OC(=O)C(c2cccs2)C(=O)O1	> 100 µM

Each molecule was assayed on NCI-H522 lung (assay: NCI tumour cell line growth inhibition, 48 h).

Structure (SMILES)	TGI
O=C1c2ccccc2-c2ccccc2C(=O)C1(Br)Br	4.92 µM
O=C1C(Cl)C(c2cc(Br)cc(Br)c2O)N1n1cnc2ccccc2c1=O (stereo not drawn)	49.1 µM
CC1(C)OC(=O)C(c2cccs2)C(=O)O1	> 100 µM

Each molecule was assayed on 786-0 renal (assay: NCI tumour cell line growth inhibition, 48 h).

Structure (SMILES)	TGI
CCCc1nc(N)nc(C(=O)Nc2cccc(C(F)(F)F)c2)c1CC	> 100 µM
O=C1c2ccccc2-c2ccccc2C(=O)C1(Br)Br	25.7 µM
O=C1C(Cl)C(c2cc(Br)cc(Br)c2O)N1n1cnc2ccccc2c1=O (stereo not drawn)	> 100 µM
COc1nc(NC2OC(COC(C)=O)C(OC(C)=O)C(OC(C)=O)C2OC(C)=O)c2c(OC(C)=O)c(C)c(=O)oc2n1 (stereo not drawn)	> 100 µM
CC1(C)OC(=O)C(c2cccs2)C(=O)O1	> 100 µM

The molecules below were run on OVCAR-8 ovarian (assay: NCI tumour cell line growth inhibition, 48 h).

Structure (SMILES)	TGI
CCCc1nc(N)nc(C(=O)Nc2cccc(C(F)(F)F)c2)c1CC	> 100 µM
O=C1c2ccccc2-c2ccccc2C(=O)C1(Br)Br	23.9 µM
O=C1C(Cl)C(c2cc(Br)cc(Br)c2O)N1n1cnc2ccccc2c1=O (stereo not drawn)	94.9 µM
COc1nc(NC2OC(COC(C)=O)C(OC(C)=O)C(OC(C)=O)C2OC(C)=O)c2c(OC(C)=O)c(C)c(=O)oc2n1 (stereo not drawn)	> 100 µM
CC1(C)OC(=O)C(c2cccs2)C(=O)O1	> 100 µM

The molecules below were run on OVCAR-4 ovarian (assay: NCI tumour cell line growth inhibition, 48 h).

Structure (SMILES)	TGI
CCCc1nc(N)nc(C(=O)Nc2cccc(C(F)(F)F)c2)c1CC	> 100 µM
O=C1c2ccccc2-c2ccccc2C(=O)C1(Br)Br	26.7 µM
O=C1C(Cl)C(c2cc(Br)cc(Br)c2O)N1n1cnc2ccccc2c1=O (stereo not drawn)	43.1 µM
COc1nc(NC2OC(COC(C)=O)C(OC(C)=O)C(OC(C)=O)C2OC(C)=O)c2c(OC(C)=O)c(C)c(=O)oc2n1 (stereo not drawn)	> 100 µM
CC1(C)OC(=O)C(c2cccs2)C(=O)O1	> 100 µM

The molecules below were run on LOX IMVI melanoma (assay: NCI tumour cell line growth inhibition, 48 h).

Structure (SMILES)	TGI
CCCc1nc(N)nc(C(=O)Nc2cccc(C(F)(F)F)c2)c1CC	> 100 µM
O=C1c2ccccc2-c2ccccc2C(=O)C1(Br)Br	22.2 µM
O=C1C(Cl)C(c2cc(Br)cc(Br)c2O)N1n1cnc2ccccc2c1=O (stereo not drawn)	30.4 µM
COc1nc(NC2OC(COC(C)=O)C(OC(C)=O)C(OC(C)=O)C2OC(C)=O)c2c(OC(C)=O)c(C)c(=O)oc2n1 (stereo not drawn)	> 100 µM
CC1(C)OC(=O)C(c2cccs2)C(=O)O1	> 100 µM

What follows are molecules tested on DMS 273 small cell lung (assay: NCI tumour cell line growth inhibition, 48 h).

Structure (SMILES)	TGI
CCCc1nc(N)nc(C(=O)Nc2cccc(C(F)(F)F)c2)c1CC	> 100 µM
O=C1c2ccccc2-c2ccccc2C(=O)C1(Br)Br	29.8 µM
O=C1C(Cl)C(c2cc(Br)cc(Br)c2O)N1n1cnc2ccccc2c1=O (stereo not drawn)	> 100 µM
CC1(C)OC(=O)C(c2cccs2)C(=O)O1	> 100 µM
